Source: ChEMBL document CHEMBL1201862, “PubChem BioAssay data set” (2004)
Calls of active or inactive are those of the source.

Experiments:
Ephrin type-A receptor 4 = Ephrin type-A receptor 4 (Mus musculus, UniProt Q03137); assay: EphA4 ligand-binding antagonists – biochemical, colorimetric, mouse EphA4, primary screen (AID 689); type: functional
H9c2 = assay: cells; type: functional, cell-based; conditions: Rattus norvegicus, H9c2, Myocardium;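 note: confirmatory concentration-response retest of ultra-high-throughput screening hits for modulation of myocardial damage; cell death induced by hydrogen peroxide oxidative stress; compound pretreatment for 60 min then peroxide exposure for 2 h; potency is for protecting the cells against peroxide damage rather than for killing them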
[1] = system: Streptococcus sp. 'group A'; assay: Streptococcus pyogenes SK(-)GAS viability under kanamycin – luminescence, BacTiterGlo, confirmation, counter-screen for streptokinase expression inhibitor project, dose response (AID 1900); type: functional, organism-based
Streptococcus = assay: GAS UMAA2166 growth inhibition – luminescence, BacTiterGlo, counter-screen for streptokinase expression inhibitor project, dose response (AID 1915); type: functional, organism-based;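 note: potency for reduction of bacterial viability or growth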
[2] = biological target: T1, Low molecular weight phosphotyrosine protein phosphatase (Homo sapiens, UniProt P24666); type: functional; conditions: read-out: IC50_Mean;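 note: Dose-response confirmation assay measuring inhibition of LMPTP enzyme activity by fluorescence intensity read-out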
T1 sequence (P24666 whole entry): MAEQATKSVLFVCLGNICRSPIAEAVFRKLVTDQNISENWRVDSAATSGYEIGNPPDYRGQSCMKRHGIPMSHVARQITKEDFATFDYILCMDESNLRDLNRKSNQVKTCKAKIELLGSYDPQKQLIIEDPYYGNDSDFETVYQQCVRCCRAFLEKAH

[3] = biological target: T2, Oxysterols receptor LXR-beta (Homo sapiens, UniProt P55055); type: functional, cell-based;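 note: Cell-based luminescence dose-response assay of agonist activity at LXR, run as a confirmatory counterscreen to a daf-12 agonist screen; HEK293 cells with Gal4-LXR fusion and GAL4-driven luciferase reporter; agonist potency from rising luciferase signal of a Gal4-LXR reporter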
T2 sequence (P55055 whole entry): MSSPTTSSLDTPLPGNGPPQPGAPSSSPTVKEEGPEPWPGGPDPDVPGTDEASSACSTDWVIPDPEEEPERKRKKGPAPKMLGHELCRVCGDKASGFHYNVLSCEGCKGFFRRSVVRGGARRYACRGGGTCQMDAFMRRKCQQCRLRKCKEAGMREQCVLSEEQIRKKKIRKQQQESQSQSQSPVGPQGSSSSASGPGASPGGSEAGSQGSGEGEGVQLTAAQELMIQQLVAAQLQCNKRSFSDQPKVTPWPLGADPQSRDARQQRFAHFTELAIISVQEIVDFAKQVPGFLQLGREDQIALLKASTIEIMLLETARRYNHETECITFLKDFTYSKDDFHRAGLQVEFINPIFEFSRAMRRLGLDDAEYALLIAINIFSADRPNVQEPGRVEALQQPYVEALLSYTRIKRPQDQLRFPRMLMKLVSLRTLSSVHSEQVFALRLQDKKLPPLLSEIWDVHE

[4] = Luminescence Cell-Based Dose Confirmation HTS to Identify Inhibitors of Platelet Dense Granule Release. [Related pubchem assays: 1663 (Primary HTS), 1678 (Summary of Project)]; type: functional
cells [5] = assay: cells
[6] = biological target: Luciferin 4-monooxygenase (Photinus pyralis, UniProt P08659); assay: inhibition of purified Photinus pyralis luciferase – biochemical, luminescence, dose response (AID 1891)
[7] = biological target: T3, Long-chain-fatty-acid--AMP ligase FadD28 (Mycobacterium tuberculosis, UniProt P9WQ59); assay: Fluorescence polarization aasay to screen for inhibitors that compete for the binding of FadD28 to a bisubstrate Measured in Biochemical System Using Plate Reader - 2147-01_Inhibitor_Dose_CherryPick_Activity.; type: functional, Mycobacterium tuberculosis H37Rv
T3 sequence (P9WQ59 whole entry): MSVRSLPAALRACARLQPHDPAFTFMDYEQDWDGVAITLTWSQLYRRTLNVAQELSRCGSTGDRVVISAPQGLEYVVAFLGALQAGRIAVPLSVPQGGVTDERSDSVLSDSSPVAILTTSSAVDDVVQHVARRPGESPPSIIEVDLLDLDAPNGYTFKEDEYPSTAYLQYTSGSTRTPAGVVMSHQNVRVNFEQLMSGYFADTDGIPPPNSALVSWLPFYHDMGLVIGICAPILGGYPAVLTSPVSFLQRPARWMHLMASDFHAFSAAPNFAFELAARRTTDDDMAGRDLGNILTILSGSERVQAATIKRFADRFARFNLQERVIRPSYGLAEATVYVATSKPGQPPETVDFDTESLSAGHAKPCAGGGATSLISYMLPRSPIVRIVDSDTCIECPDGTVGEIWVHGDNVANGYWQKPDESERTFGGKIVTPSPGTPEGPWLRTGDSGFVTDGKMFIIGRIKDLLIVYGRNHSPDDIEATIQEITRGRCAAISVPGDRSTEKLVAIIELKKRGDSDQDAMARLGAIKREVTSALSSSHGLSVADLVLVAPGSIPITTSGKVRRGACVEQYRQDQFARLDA

Kallikrein-7 = Kallikrein-7 (Homo sapiens, UniProt P49862); assay: Fluorescence Intensity-based biochemical primary high throughput dose response assay to identify activators of kallikrein-7 (K7) zymogen.
[8] = toxicity toward immortalized ovarian surface epithelium – cell-based, plate reader, dry powder samples, cytotoxicity control for PAX8 inhibitor project, dose response (AID 743045); type: functional
[9] = IGROV1 cell killing – plate reader, dry powder samples, PAX8 inhibitor project, dose response (AID 743043); type: functional, cell-based; conditions: IGROV-1
[10] = OVCAR8 cell viability loss – plate reader, dry powder samples, PAX8 project, dose response (AID 743197); type: functional, cell-based; conditions: OVCAR-8
Paired box protein Pax-8 = Paired box protein Pax-8 (Homo sapiens, UniProt Q06710); assay: PAX8 transcriptional activity inhibition in RMG-I – RMG-I cells, luciferase, cherry-pick, dose response (AID 687027); type: functional, cell-based;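 note: luciferase reporter driven by Pax8 target thyroperoxidase promoter measured by SteadyGlo luminescence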
[11] = OVCAR-3 cell viability loss – plate reader, dry powder samples, PAX8 inhibitor project, dose response (AID 743044); type: functional, cell-based
[12] = biological target: Glucose-6-phosphate 1-dehydrogenase (Homo sapiens, UniProt P11413); assay: inhibition of Homo sapiens G6PD, dose series – biochemical, fluorescence, selectivity assay for P. falciparum G6PD inhibitor project, dose response (AID 504792); type: functional
[13] = viability loss in HeLa cells – cytotoxicity control for MgcRacGAP inhibitor project, dose response (AID 624300); type: functional
[14] = biological target: T4, Rac GTPase-activating protein 1 (Homo sapiens, UniProt Q9H0H5); assay: blockers of MgcRacGAP-driven Rac1 GTP hydrolysis – biochemical, ADP Hunter fluorescence, primary and confirmatory, confirmation (AID 624330); type: functional
T4 sequence (Q9H0H5 whole entry): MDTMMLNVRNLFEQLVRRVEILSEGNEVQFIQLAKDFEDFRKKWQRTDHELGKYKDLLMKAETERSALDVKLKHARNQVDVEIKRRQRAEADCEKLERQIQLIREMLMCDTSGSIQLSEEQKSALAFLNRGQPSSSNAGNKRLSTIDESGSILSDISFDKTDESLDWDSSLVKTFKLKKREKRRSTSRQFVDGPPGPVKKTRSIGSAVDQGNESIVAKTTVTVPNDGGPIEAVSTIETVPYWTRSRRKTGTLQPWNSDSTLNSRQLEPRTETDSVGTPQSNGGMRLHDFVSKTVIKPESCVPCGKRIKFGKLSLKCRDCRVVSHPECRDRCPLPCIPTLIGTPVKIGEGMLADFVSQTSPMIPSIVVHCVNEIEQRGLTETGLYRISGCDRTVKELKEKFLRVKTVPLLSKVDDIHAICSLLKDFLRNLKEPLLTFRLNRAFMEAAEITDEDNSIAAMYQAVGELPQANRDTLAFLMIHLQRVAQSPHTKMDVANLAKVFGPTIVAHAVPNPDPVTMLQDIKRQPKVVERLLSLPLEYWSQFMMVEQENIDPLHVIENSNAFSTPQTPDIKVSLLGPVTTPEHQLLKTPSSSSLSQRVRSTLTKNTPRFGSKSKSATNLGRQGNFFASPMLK

[15] = biological target: T5, Probable nicotinate-nucleotide adenylyltransferase (Staphylococcus aureus (strain N315), UniProt P65502); type: functional, Staphylococcus aureus subsp. aureus N315;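 for IC50 Mean: confirmatory dose-response retesting of NadD inhibitor hits first found in an ultra-high-throughput screen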
[16] = biological target: T5, Probable nicotinate-nucleotide adenylyltransferase; type: functional, Staphylococcus aureus subsp. aureus N315; conditions: read-out: IC50_Mean
[17] = IC50 of Artemis nuclease activity blockers – biochemical, fluorescence intensity, dose response (AID 720701); type: functional;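 note: Artemis endonuclease enzyme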
cells [18] = type: functional, cell-based; conditions: HEK-CNG
Galanin receptor type 3 = biological target: T6, Galanin receptor type 3 (Homo sapiens, UniProt O60755); assay: Fluorescence-based cell-based primary high throughput dose response assay to identify antagonists of the Galanin Receptor 3 (GalR3).; type: functional
T6 sequence (O60755 whole entry): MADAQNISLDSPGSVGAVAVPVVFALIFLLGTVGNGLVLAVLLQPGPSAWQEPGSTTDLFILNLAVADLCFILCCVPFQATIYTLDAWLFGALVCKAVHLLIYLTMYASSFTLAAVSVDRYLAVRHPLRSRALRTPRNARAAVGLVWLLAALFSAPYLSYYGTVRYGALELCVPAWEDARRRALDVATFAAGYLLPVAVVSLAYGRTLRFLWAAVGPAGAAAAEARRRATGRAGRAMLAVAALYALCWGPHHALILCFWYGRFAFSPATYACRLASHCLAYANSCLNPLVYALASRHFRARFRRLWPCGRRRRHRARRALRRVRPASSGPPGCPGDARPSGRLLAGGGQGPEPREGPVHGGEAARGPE

Caspase-6 = biological target: T7, Caspase-6 (Homo sapiens, UniProt P55212); assay: inhibition of CASP6 peptide cleavage – biochemical, VEID-R110 fluorescence, cherry-pick, dose response (AID 720632)
T7 sequence (P55212 whole entry): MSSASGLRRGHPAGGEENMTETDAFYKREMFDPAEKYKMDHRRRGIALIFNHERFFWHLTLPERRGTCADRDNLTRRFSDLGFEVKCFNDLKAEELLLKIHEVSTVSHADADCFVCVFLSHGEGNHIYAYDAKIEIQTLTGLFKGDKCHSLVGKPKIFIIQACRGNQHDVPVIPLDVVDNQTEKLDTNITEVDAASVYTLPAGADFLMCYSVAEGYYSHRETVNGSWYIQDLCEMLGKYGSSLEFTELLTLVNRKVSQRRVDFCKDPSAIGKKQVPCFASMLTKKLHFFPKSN

[19] = biological target: T8, Carboxy-terminal domain RNA polymerase II polypeptide A small phosphatase 1 (Homo sapiens, UniProt Q9GZU7); assay: CTDSP1 inhibitors, concentration-response, biochemical, absorbance readout, ultra-high-throughput screen actives (AID 540297); type: functional
T8 sequence (Q9GZU7 whole entry): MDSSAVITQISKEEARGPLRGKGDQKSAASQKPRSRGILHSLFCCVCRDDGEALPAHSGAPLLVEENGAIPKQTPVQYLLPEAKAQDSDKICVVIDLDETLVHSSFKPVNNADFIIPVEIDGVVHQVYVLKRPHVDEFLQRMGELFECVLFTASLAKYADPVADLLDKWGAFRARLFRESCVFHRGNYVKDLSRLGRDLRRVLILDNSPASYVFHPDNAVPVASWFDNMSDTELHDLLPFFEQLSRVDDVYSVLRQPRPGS

Sequence of Ephrin type-A receptor 4 (Q03137 whole entry): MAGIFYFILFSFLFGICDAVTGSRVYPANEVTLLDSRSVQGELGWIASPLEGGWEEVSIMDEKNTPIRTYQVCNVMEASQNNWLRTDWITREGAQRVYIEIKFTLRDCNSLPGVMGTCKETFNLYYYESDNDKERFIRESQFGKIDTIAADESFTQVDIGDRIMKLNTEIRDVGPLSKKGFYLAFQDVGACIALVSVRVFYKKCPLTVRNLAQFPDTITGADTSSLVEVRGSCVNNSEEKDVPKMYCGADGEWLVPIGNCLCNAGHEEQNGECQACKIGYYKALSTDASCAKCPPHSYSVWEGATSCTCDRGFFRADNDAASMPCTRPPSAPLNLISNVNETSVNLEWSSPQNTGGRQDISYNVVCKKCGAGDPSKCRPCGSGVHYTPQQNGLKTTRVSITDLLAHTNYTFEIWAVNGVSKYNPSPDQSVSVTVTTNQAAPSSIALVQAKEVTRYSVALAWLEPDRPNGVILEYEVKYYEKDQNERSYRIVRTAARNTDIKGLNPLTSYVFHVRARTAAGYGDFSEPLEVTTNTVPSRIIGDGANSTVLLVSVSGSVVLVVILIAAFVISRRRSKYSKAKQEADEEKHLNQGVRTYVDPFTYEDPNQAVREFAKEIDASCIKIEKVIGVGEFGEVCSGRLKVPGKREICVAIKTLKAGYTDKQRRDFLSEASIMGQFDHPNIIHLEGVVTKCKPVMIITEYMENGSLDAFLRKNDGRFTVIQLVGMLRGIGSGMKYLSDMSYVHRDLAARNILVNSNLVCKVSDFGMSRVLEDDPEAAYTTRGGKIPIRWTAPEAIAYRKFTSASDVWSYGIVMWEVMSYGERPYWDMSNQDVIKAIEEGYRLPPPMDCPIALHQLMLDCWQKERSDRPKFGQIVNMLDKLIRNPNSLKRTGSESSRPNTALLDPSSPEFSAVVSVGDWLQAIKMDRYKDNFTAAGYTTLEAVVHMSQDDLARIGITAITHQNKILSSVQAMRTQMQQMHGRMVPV
T5 sequence (P65502 whole entry): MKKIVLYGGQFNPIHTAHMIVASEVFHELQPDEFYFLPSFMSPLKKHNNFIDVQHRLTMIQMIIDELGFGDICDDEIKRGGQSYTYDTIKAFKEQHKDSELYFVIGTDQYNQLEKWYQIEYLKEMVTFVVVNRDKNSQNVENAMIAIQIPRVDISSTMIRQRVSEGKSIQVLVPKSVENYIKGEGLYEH
Sequence of Luciferin 4-monooxygenase (P08659 whole entry): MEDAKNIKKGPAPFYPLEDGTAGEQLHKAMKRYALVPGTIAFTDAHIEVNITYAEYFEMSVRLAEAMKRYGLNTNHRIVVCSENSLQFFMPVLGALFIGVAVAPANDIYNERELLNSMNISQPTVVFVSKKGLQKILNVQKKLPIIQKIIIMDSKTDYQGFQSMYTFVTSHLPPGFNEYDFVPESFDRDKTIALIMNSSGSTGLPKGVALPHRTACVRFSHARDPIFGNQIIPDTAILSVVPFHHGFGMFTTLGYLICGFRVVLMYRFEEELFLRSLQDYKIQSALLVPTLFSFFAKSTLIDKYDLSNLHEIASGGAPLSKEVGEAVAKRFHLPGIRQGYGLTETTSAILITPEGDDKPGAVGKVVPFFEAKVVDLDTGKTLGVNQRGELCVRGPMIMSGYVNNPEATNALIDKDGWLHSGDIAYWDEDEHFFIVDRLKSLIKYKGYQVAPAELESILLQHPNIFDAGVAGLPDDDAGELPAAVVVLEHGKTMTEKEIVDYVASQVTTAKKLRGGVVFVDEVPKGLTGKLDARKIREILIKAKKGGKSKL
Sequence of Kallikrein-7 (P49862 whole entry): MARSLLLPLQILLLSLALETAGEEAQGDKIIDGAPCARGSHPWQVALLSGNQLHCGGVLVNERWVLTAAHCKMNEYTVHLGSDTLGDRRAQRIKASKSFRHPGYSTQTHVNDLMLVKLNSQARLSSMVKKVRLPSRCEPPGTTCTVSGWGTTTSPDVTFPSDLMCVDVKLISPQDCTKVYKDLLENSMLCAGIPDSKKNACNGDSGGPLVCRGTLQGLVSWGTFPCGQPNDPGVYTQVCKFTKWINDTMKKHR
Sequence of Paired box protein Pax-8 (Q06710 whole entry): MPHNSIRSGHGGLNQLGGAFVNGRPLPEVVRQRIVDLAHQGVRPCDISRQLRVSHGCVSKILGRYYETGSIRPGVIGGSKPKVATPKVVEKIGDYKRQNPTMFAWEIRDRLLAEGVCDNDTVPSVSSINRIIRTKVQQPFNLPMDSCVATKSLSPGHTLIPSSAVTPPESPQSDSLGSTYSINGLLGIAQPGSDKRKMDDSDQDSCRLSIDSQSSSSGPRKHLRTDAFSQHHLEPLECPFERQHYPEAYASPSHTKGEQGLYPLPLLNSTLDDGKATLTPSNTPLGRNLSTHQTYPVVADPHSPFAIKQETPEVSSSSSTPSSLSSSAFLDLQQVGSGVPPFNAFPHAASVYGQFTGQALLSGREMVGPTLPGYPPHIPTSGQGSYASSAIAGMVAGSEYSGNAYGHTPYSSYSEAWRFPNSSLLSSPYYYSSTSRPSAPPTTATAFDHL
Sequence of Glucose-6-phosphate 1-dehydrogenase (P11413 whole entry): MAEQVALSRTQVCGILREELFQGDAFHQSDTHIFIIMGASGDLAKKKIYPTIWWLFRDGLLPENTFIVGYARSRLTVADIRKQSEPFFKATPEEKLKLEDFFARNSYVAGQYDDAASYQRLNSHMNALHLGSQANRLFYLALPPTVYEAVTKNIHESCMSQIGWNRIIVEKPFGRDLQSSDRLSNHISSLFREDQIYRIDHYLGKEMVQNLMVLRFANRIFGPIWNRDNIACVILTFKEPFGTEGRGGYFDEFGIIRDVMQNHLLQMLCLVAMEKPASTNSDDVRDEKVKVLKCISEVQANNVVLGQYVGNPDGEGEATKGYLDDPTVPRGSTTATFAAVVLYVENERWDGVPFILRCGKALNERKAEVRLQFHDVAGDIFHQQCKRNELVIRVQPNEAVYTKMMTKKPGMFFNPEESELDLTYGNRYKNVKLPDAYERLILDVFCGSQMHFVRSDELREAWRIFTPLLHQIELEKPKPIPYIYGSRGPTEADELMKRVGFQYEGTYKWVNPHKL

N#CC(c1nc2ccccc2nc1N1CCCC1)S(=O)(=O)c1cccs1 (stereo unspecified)
IC50 (Ephrin type-A receptor 4): > 100 µM (not active)
IC50 (H9c2): > 79 µM (inactive)

CC[C@H]1OC(=O)[C@H](C)[C@@H](O[C@H]2C[C@@](C)(OC)[C@@H](O)[C@H](C)O2)[C@H](C)[C@@H](O[C@@H]2O[C@H](C)C[C@H](N(C)C)[C@H]2O)[C@](C)(O)C[C@@H](C)C(=O)[C@H](C)[C@@H](O)[C@]1(C)O [ERYTHROMYCIN]
EC50 [1]: < 0.06 µM (active)
EC50 (Streptococcus): < 0.06 µM (active)
IC50 [2]: 47.1 µM (inactive)

Cc1ccc(N=Nc2cc(C)ccc2N)cc1
EC50 [3]: > 67.5 µM (inactive)
EC50 [4]: 3.15 µM (active)
EC50 (cells [5]): > 67.5 µM (inactive)
EC50 [6]: 0.149 µM (active)

Cc1ccc(NC(=O)CNc2ccccc2N2CCCC2=O)cc1S(=O)(=O)N1CCCCC1
AC50 [7]: 48.3 µM (active)

CN(C)c1ccc(C(=O)C=Cc2ccc([N+](=O)[O-])cc2)cc1
IC50 [2]: 80 µM (inactive)

CC1CCCCN1C(=O)CSc1nnc(-c2ccccc2O)o1 (stereo unspecified)
EC50 [3]: > 67.5 µM (inactive)
EC50 (cells [5]): > 67.5 µM (inactive)

CCC(NC(=O)CCc1c(C)c2cc3c(C)c(C)oc3cc2oc1=O)C(=O)N[C@@H](Cc1ccccc1)C(=O)O (stereo partly specified)
EC50 (Kallikrein-7): > 69.5 µM (inactive)

Cc1ccc(-c2nc(O)c3sccc3n2)cc1
EC50 [3]: > 67.5 µM (inactive)
EC50 (cells [5]): > 67.5 µM (inactive)

C[C@@H]1CN([C@H](C)CO)C(=O)c2cc(NC(=O)Nc3ccc(C(F)(F)F)cc3)ccc2O[C@@H](C)CCCCO[C@H]1CN(C)C(=O)c1ccccc1
AC50 [8]: 37.5 µM (active)
AC50 [9]: 35.6 µM (active)
AC50 [10]: 50.7 µM (active)
AC50 (Paired box protein Pax-8): 12.1 µM (active)
AC50 [11]: 33.2 µM (active)

COc1cccc(CNc2ccc3[nH]c(O)nc3c2)c1OCc1ccccc1Cl
IC50 [12]: > 80 µM (inactive)
CC50 [13]: 100 µM (active)
IC50 [14]: 69 µM (active)

Oc1ccc(C[C@H]2CNC(=S)N2CC2CCCN2C[C@H](Cc2ccc(O)cc2)N2C[C@H](Cc3ccccc3)N(CC3CCCCC3)C2=S)cc1 (stereo partly specified)
IC50 [15]: 16.3 µM (active)
IC50 [16]: 22.1 µM (active)

CC(C)(C)c1cc(/C=N/NC(=O)Cc2nc3ccccc3[nH]2)cc(C(C)(C)C)c1O
IC50 [17]: > 20 µM (inactive)

O=[N+]([O-])c1[nH]c2nc(O)nc-2cc1Cl
EC50 (cells [18]): > 29.9 µM (inactive)
IC50 (Galanin receptor type 3): 16.7 µM (inactive)

Cc1ccc(S(=O)(=O)/C(C#N)=C/c2c(N3CCOCC3)nc3ccccn3c2=O)cc1
IC50 (Ephrin type-A receptor 4): > 100 µM (not active)

O=C(O)c1ccc(N/N=C/c2cc(Br)cs2)cc1
AC50 [7]: 32 µM (inactive)

Nc1c(Br)cc(Br)c2c1nc(O)c1ccccc12
AC50 (Caspase-6): 18.1 µM (active)

CC1CCC2(CC1)NC(=O)N(CC(=O)Nc1sc3c(c1C(N)=O)CCC3)C2=O (stereo unspecified)
IC50 [19]: 3.44 µM (active)
AC50 (Caspase-6): 10.9 µM (active)

CCSC1=N/C(=C\c2ccc(-c3ccccc3[N+](=O)[O-])o2)C(=O)S1
IC50 (Ephrin type-A receptor 4): > 100 µM (not active)
IC50 [17]: 0.967 µM (active)
